Assay results as given in US10081630B2, “Radioactive halogen-labeled pyrido [1,2-A] benzimidazole derivative compound” (KYOTO UNIVERSITY, priority 2015, dated 2018).

Legend:
[1] = Evaluation of in vivo radioactivity distribution in normal mouse; settings: normal ddY male mice, tail vein; for radioactivity distribution, Blood / radioactivity distribution, Brain / radioactivity distribution, Heart / radioactivity distribution, Intestine / radioactivity distribution, Kidney / radioactivity distribution, Liver / radioactivity distribution, Lung / radioactivity distribution, Pancreas / radioactivity distribution, Spleen / radioactivity distribution, Stomach / radioactivity distribution, Thyroid gland: mean (SD)
Description: (Evaluation 2) Evaluation of In Vivo Radioactivity Distribution in Normal Mouse
Each compound of [^125I]BIP-NMe2, [^125I]BIP-OMe, and [^125I]BIP-Me synthesized according to the method shown in Example 7 was diluted with saline containing 10 vol % ethanol and 0.1 vol % Tween 80. Each radioactive iodine-labeled BIP derivative compound was administered to a group of 5-week-old ddY male mice (26 to 28 g; each group involved 5 mice) from the tail veins thereof at 19.6 to 29.4 kBq (100 μL) per mouse. After 2, 10, 30, or 60 minutes, the mice were slaughtered. After blood collection, the organs were taken out, and their weights and radioactivity were measured.
In Tables 2 to 4, the numerical values shown in the column “Time after administration” are means of % ID for the stomach and the thyroid gland and means of % ID/g for the other tissues with standard deviation (SD) shown in parenthesis.

[2] = tested on: tau accumulated in the brain with AD; assay: In vitro autoradiography using autopsied brain tissue of Alzheimer's disease patient; type: binding, human
Description: (Evaluation 1) In Vitro Autoradiography Using Autopsied Brain Tissue of Alzheimer's Disease Patient (1) In Vitro Autoradiography
Autopsied brain tissue sections of an Alzheimer's disease (AD) patient (sections from a frontal lobe site and a temporal lobe site, 6 μm) were used, which were provided from Graduate School of Medicine, Kyoto University and National Cerebral and Cardiovascular Center Hospital. Deparaffinization treatment was performed by washing with xylene (15 min×2), ethanol (1 min×2), a 90 vol % aqueous ethanol solution (1 min×1), an 80 vol % aqueous ethanol solution (1 min×1), a 70 vol % aqueous ethanol solution (1 min×1), and purified water (2.5 min×2). A 10 vol % aqueous ethanol solution of each radioactive iodine-labeled BIP derivative compound (370 kBq/mL) obtained by the method shown in Example 7 was added thereto, and the tissue sections were incubated at room temperature for 2 hours. The tissue sections were washed with a 50 vol % aqueous ethanol solution (1 hr×1), then exposed to an imaging plate (BAS-SR2025 manufactured by Fujifilm Corp.), and analyzed using a bioimaging analyzer (bioimaging analyzer BAS-5000 manufactured by Fujifilm Corp.). Multi Gauge manufactured by Fujifilm Corp. was used in quantitative analysis.
FIGS. 5E and 5F show the results obtained using [^125I]BIP-NMe2. FIGS. 5G and 5H show the results obtained using [^125I]BIP-OMe. FIGS. 5I and 5J show the results obtained using [^125I]BIP-Me. FIGS. 5E, 5G, and 5I show the results obtained using the brain tissue section of the frontal lobe. FIGS. 5F, 5H, and 5J show the results obtained using the brain tissue section of the temporal lobe.
Tau and Aβ were immunostained using sections adjacent to the autopsied AD brain tissue sections used in autoradiography. An anti-phosphorylated tau monoclonal antibody (AT8, manufactured by Thermo Fisher Scientific Inc.) was used as a primary antibody in the immunostaining of tau, and an anti-Aβ1-42 monoclonal antibody (BC05, manufactured by Wako Pure Chemical Industries, Ltd.) was used as a primary antibody in the immunostaining of Aβ. Deparaffinization treatment was performed by washing with xylene (15 min×2), ethanol (1 min×2), a 90 vol % aqueous ethanol solution (1 min×1), an 80 vol % aqueous ethanol solution (1 min×1), a 70 vol % aqueous ethanol solution (1 min×1), and purified water (2.5 min×2). The antigens were retrieved by autoclaving (15 min) in a 0.01 mol/L citrate buffer solution (pH 6.0) and formic acid treatment (5 min). The tissue sections were washed with running water (5 min) and then washed with PBS-Tween 20 (2 min×1). The tissue sections were reacted with primary antibody solutions at room temperature for 1 hour and then washed with PBS-Tween 20 (5 min×3). The tissue sections were reacted with Histofine Simple Stain MAX-PO (MULTI) (manufactured by Nichirei Biosciences Inc.) at room temperature for 30 minutes and then washed with PBS-Tween 20 (3 min×3) and TBS (5 min×1). Finally, the tissue sections were reacted with a DAB solution at room temperature for 1 minute. The tissue sections were washed with distilled water (1 min×1) to terminate the reaction. The brain tissue sections were mounted on slides and then observed under a microscope (BZ-9000 manufactured by Keyence Corporation).
FIGS. 5A and 5B show the results obtained using the brain tissue section of the frontal lobe. FIGS. 5C and 5D show the results obtained using the brain tissue section of the temporal lobe. FIGS. 5A and 5C show the results of immunostaining with the antibody against tau. FIGS. 5B and 5D show the results of immunostaining with the antibody against Aβ.

CN(C)c1ccn2c(c1)nc1cc([125I])ccc12 [[^125I]BIP-NMe2, 7-[^125I]iodo-3-dimethylaminopyrido[1,2-a]benzimidazole]
clearance from the brain [1]: rapid clearance from the brain
transfer to the brain early after administration [1]: high transfer to the brain
radioactivity distribution, Blood ([1]; 2 min after administration): 2.91(0.75) % ID/g
radioactivity distribution, Brain ([1]; 2 min after administration): 3.98(0.32) % ID/g
radioactivity distribution, Heart ([1]; 2 min after administration): 6.38(1.09) % ID/g
radioactivity distribution, Intestine ([1]; 2 min after administration): 3.07(0.52) % ID/g
radioactivity distribution, Kidney ([1]; 2 min after administration): 14.3(1.91) % ID/g
radioactivity distribution, Liver ([1]; 2 min after administration): 9.78(2.50) % ID/g
radioactivity distribution, Lung ([1]; 2 min after administration): 8.80(1.70) % ID/g
radioactivity distribution, Pancreas ([1]; 2 min after administration): 5.66(1.03) % ID/g
radioactivity distribution, Spleen ([1]; 2 min after administration): 2.97(0.92) % ID/g
radioactivity distribution, Stomach ([1]; 2 min after administration): 1.71(0.43) % ID
radioactivity distribution, Thyroid gland ([1]; 2 min after administration): 0.05(0.03) % ID
radioactivity distribution, Blood ([1]; 10 min after administration): 1.48(0.18) % ID/g
radioactivity distribution, Brain ([1]; 10 min after administration): 1.66(0.16) % ID/g
radioactivity distribution, Heart ([1]; 10 min after administration): 2.53(0.24) % ID/g
radioactivity distribution, Intestine ([1]; 10 min after administration): 7.45(0.50) % ID/g
radioactivity distribution, Kidney ([1]; 10 min after administration): 17.0(1.70) % ID/g
radioactivity distribution, Liver ([1]; 10 min after administration): 18.1(0.53) % ID/g
radioactivity distribution, Lung ([1]; 10 min after administration): 3.59(0.43) % ID/g
radioactivity distribution, Pancreas ([1]; 10 min after administration): 4.77(0.27) % ID/g
radioactivity distribution, Spleen ([1]; 10 min after administration): 5.15(0.84) % ID/g
radioactivity distribution, Stomach ([1]; 10 min after administration): 3.30(0.49) % ID
radioactivity distribution, Thyroid gland ([1]; 10 min after administration): 0.03(0.01) % ID
radioactivity distribution, Blood ([1]; 30 min after administration): 1.18(0.26) % ID/g
radioactivity distribution, Brain ([1]; 30 min after administration): 0.38(0.03) % ID/g
radioactivity distribution, Heart ([1]; 30 min after administration): 1.00(0.15) % ID/g
radioactivity distribution, Intestine ([1]; 30 min after administration): 14.5(3.43) % ID/g
radioactivity distribution, Kidney ([1]; 30 min after administration): 7.45(1.11) % ID/g
radioactivity distribution, Liver ([1]; 30 min after administration): 12.7(1.35) % ID/g
radioactivity distribution, Lung ([1]; 30 min after administration): 1.77(0.31) % ID/g
radioactivity distribution, Pancreas ([1]; 30 min after administration): 1.51(0.19) % ID/g
radioactivity distribution, Spleen ([1]; 30 min after administration): 2.97(0.44) % ID/g
radioactivity distribution, Stomach ([1]; 30 min after administration): 6.35(1.13) % ID
radioactivity distribution, Thyroid gland ([1]; 30 min after administration): 0.02(0.01) % ID
radioactivity distribution, Blood ([1]; 60 min after administration): 0.93(0.23) % ID/g
radioactivity distribution, Brain ([1]; 60 min after administration): 0.16(0.01) % ID/g
radioactivity distribution, Heart ([1]; 60 min after administration): 0.63(0.05) % ID/g
radioactivity distribution, Intestine ([1]; 60 min after administration): 23.5(3.65) % ID/g
radioactivity distribution, Kidney ([1]; 60 min after administration): 5.45(1.90) % ID/g
radioactivity distribution, Liver ([1]; 60 min after administration): 5.82(0.91) % ID/g
radioactivity distribution, Lung ([1]; 60 min after administration): 0.99(0.07) % ID/g
radioactivity distribution, Pancreas ([1]; 60 min after administration): 0.80(0.15) % ID/g
radioactivity distribution, Spleen ([1]; 60 min after administration): 1.97(0.25) % ID/g
radioactivity distribution, Stomach ([1]; 60 min after administration): 7.59(1.39) % ID
radioactivity distribution, Thyroid gland ([1]; 60 min after administration): 0.01(0.00) % ID
radioactivity accumulation in the brain tissue section of the frontal lobe ([2]; AD patient autopsied brain section, frontal lobe, 370 kBq/mL, 2 hours room temperature): none
radioactivity accumulation in the brain tissue section of the temporal lobe ([2]; AD patient autopsied brain section, temporal lobe, 370 kBq/mL, 2 hours room temperature): exhibited radioactivity accumulation in only the brain tissue section of the temporal lobe
nonspecific binding to the brain white matter ([2]; AD patient autopsied brain sections): low
visualization of tau (autoradiography compared with tau and Aβ immunostaining) ([2]; AD patient temporal lobe section, adjacent sections immunostained (AT8, BC05)): clearly visualizes tau accumulated in the brain with AD
